Experiments:
[1] = system: PC3 human prostate cancer cells; assay: Example S: in vitro anticancer screen, PC-3 cells, Wst1; format: cell-based; details: approximately 20 hours, Wst1
Experimental: Activity against PC3 human prostate cancer cells in vitro was assessed by a similar method. PC-3 prostate cancer cells were plated at 2×10^4 cells/well in 96 well flat bottom tissue culture plates, and incubated for approximately 20 hours with vehicle or test compounds at concentrations of 0.4, 0.5 or 2.5 μM as indicated for specific compounds in the right-hand column of Table 37. A 1/10th volume of Wst1 dye was added/well and incubated for two hours in the cell culture incubator. Samples were analyzed in triplicate on an EL800 Universal Microplate Reader at 450 nm, reference wavelength 630 nm.
(§1) Numerical values in the Table 37 represent percent of cancer cell survival relative to vehicle treated cells at the indicated concentrations, with values under 100 indicating anticancer cytotoxic activity at the drugs concentrations tested.

[2] = system: 4T1 murine breast cancer cells; assay: Example S: in vitro anticancer screen, 4T1 cells, Wst1; format: cell-based, mouse; details: 18 hr, Wst1; for viability at 1 µM / viability at 5 µM: Mus musculus, 4T1, 18 h; for viability at 1 µM: read-out: 4T1 1 μM, percent of cancer cell survival relative to vehicle treated cells; for viability at 5 µM: read-out: 4T1 5 μM, percent of cancer cell survival relative to vehicle treated cells
Experimental: Anticancer activity against 4T1 murine breast cancer cells cancer cells was assessed in vitro by seeding 1×10^4 cells/well in flat bottom culture plates, then treating with selected 1 μM or 5 μM concentrations of compounds for 18 hr after plating. Then 10 μL of Wst1 dye reagent, a tetrazolium dye indicator for […], was added/well and incubated approximately 2 hr before being assayed on the Biotek EL800 Universal microplate reader (450 nm, reference 630 nm).
as §1

THP-1 cells = assay: Example D: LPS-triggered THP-1 cell death assay, acute/5-hour and chronic/48-hour; format: cell-based, Human; details: for Viable cell percent change, Chronic/48-hour, Mean: 10 ng/ml LPS, 0.1 μM test compound; for activity relative to AC in the LPS-triggered THP-1 cell death assay, in words: 0.1 μM, 5-hour and 48-hour time points
Experimental: Compounds of the invention were tested at 0.1 μM versus AC in the LPS-triggered THP-1 cell death assay. Both acute/5-hour and chronic/48-hour phases of cell death were assessed. Compounds were screened in batches with DMSO as the negative control and AC as the high activity control.

[3] = system: PC-3 prostate cancer cells; assay: Example T: sensitisation of PC-3 cells to doxorubicin, oxaliplatin, paclitaxel or vincristine, Wst1; format: cell-based, human; details: PC-3 cells, 72 hours; for Doxorubicin 3.5 μM: percent cell survival / Oxaliplatin 100 μM: percent cell survival / Paclitaxel 50 μM: percent cell survival / Vincristine 100 nM: percent cell survival: chemotherapy agent alone normalized to 100%; for viability at 0.4 µM: compound 0.4 μM alone
[4] = Homo sapiens, PC-3, 2.5 μM, read-out: PC-3, percent of cancer cell survival relative to vehicle treated cells
[5] = Homo sapiens, compound 2.5 μM alone, Wst1, vehicle = 100, read-out: No Chemo: percent cell survival
[6] = compound 2.5 μM + doxorubicin 3.5 μM
[7] = compound 2.5 μM + oxaliplatin 100 μM
[8] = compound 2.5 μM + paclitaxel 50 μM
[9] = compound 2.5 μM + vincristine 100 nM
[10] = Homo sapiens, PC-3, read-out: PC-3, percent of cancer cell survival relative to vehicle treated cells
[11] = Homo sapiens, Wst1, vehicle = 100, read-out: No Chemo: percent cell survival
[12] = compound 0.4 μM + doxorubicin 3.5 μM
[13] = compound 0.4 μM + oxaliplatin 100 μM
[14] = compound 0.4 μM + paclitaxel 50 μM
[15] = compound 0.4 μM + vincristine 100 nM

Row | SMILES | viability at 1 µM ([2]; 1 μM) | viability at 5 µM ([2]; 5 μM) | Viable cell percent change, Chronic/48-hour, Mean (THP-1 cells) | Doxorubicin 3.5 μM: percent cell survival [3, 6] | Oxaliplatin 100 μM: percent cell survival [3, 7] | Paclitaxel 50 μM: percent cell survival [3, 8] | Vincristine 100 nM: percent cell survival [3, 9] | viability at 0.4 µM [1, 10] | viability at 0.4 µM [3, 11] | Doxorubicin 3.5 μM: percent cell survival [3, 12] | Oxaliplatin 100 μM: percent cell survival [3, 13] | Paclitaxel 50 μM: percent cell survival [3, 14] | Vincristine 100 nM: percent cell survival [3, 15] | further results
1 | c1ccc(COc2cccc(Nc3ccnc4ccccc34)c2)cc1 [DM, N-[3-(Benzyloxy)phenyl]quinolin-4-amine] | 128% | 47.8% | 34.67% | 79.2% | 91.1% | 105.4% | 92.1% |  |  |  |  |  |  | viability at 2.5 µM [1, 4]: 45.6%; viability at 2.5 µM [3, 5]: 45.6%
2 | CC(C)(C)c1ccc(OCCCCCCCCNc2ccnc3ccccc23)cc1 [DA, N-[8-(4-tert-Butylphenoxy)octyl]quinolin-4-amine] | 17.6% | 18.4% | 43.55% |  |  |  |  | 95.7% | 95.7% | 82.8% | 91.3% | 100.8% | 19.1% | 
3 | CCCCCCOc1ccccc1CNc1ccnc2ccccc12 [DS, N-[2-(Hexyloxy)benzyl]quinolin-4-amine] | 35.6% | 25.5% | 56.67% |  |  |  |  | 70% | 70% | 86.4% | 97% | 97.1% | 98.6% | 
4 | CCCCCCOc1cccc(OCCCCNc2ccnc3ccccc23)c1 [CV, N-{4-[3-(Hexyloxy)phenoxy]butyl}quinolin-4-amine] | 25.7% | 16.9% | 23.02% |  |  |  |  |  |  |  |  |  |  | viability at 0.5 µM ([1]; Homo sapiens, PC-3, 0.5 μM, read-out: PC-3, percent of cancer cell survival relative to vehicle treated cells): 73.8%; activity relative to AC in the LPS-triggered THP-1 cell death assay, in words (THP-1 cells): equivalent activity to AC at both the 5-hour and 48-hour time points; viability at 0.5 µM ([3]; Homo sapiens, compound 0.5 μM alone, Wst1, vehicle = 100, read-out: No Chemo: percent cell survival): 73.8%; Doxorubicin 3.5 μM: percent cell survival ([3]; compound 0.5 μM + doxorubicin 3.5 μM): 36.2%; Oxaliplatin 100 μM: percent cell survival ([3]; compound 0.5 μM + oxaliplatin 100 μM): 30.6%; Paclitaxel 50 μM: percent cell survival ([3]; compound 0.5 μM + paclitaxel 50 μM): 21.4%; Vincristine 100 nM: percent cell survival ([3]; compound 0.5 μM + vincristine 100 nM): 36.1%
5 | CCCCCCCCCCOCCCCn1cnc2cnc3ccccc3c21 [GA, 1-[4-(Decyloxy)butyl]-1H-imidazo[4,5-c]quinoline] | 97.1% | 35.5% | 16.51% |  |  |  |  |  |  |  |  |  |  | viability at 1.5 µM ([1]; Homo sapiens, PC-3, 1.5 μM, read-out: PC-3, percent of cancer cell survival relative to vehicle treated cells): 41.3%; viability at 1.5 µM ([3]; Homo sapiens, compound 1.5 μM alone, Wst1, vehicle = 100, read-out: No Chemo: percent cell survival): 41.3%; Doxorubicin 3.5 μM: percent cell survival ([3]; compound 1.5 μM + doxorubicin 3.5 μM): 82.2%; Oxaliplatin 100 μM: percent cell survival ([3]; compound 1.5 μM + oxaliplatin 100 μM): 91.8%; Paclitaxel 50 μM: percent cell survival ([3]; compound 1.5 μM + paclitaxel 50 μM): 109.2%; Vincristine 100 nM: percent cell survival ([3]; compound 1.5 μM + vincristine 100 nM): 84.2%
6 | c1ccc(COc2cccc(CNc3ccnc4ccccc34)c2)cc1 [BU, N-[3-(Benzyloxy)benzyl]quinolin-4-amine] | 17.6% | 21.4% | 18.10% |  |  |  |  | 24% | 24% | 48.1% | 57.2% | 31% | 26.7% | activity relative to AC in the LPS-triggered THP-1 cell death assay, in words (THP-1 cells): equivalent activity to AC at both the 5-hour and 48-hour time points
7 | CCCCOCCCCCCNc1ccnc2ccccc12 [CL, N-(6-Butoxyhexyl)quinolin-4-amine] | 25.6% | 19.5% | 29.43% |  |  |  |  | 58.1% | 58.1% | 22.6% | 23.2% | 50.3% | 27.7% | activity relative to AC in the LPS-triggered THP-1 cell death assay, in words (THP-1 cells): equivalent activity to AC at both the 5-hour and 48-hour time points
8 | CCCCCCOCCCCCOCCCn1cnc2cnc3ccccc3c21 [CF] |  |  | 27.26% | 68.8% | 83.5% | 70.3% | 75.3% |  |  |  |  |  |  | PC-3, percent of cancer cell survival relative to vehicle treated cells ([1]; 2.5 μM): 126.4%; 4T1 1 μM, percent of cancer cell survival relative to vehicle treated cells ([2]; 1 μM): 96.7%; 4T1 5 μM, percent of cancer cell survival relative to vehicle treated cells ([2]; 5 μM): 28.6%; No Chemo: percent cell survival ([3]; compound 2.5 μM alone, Wst1, vehicle = 100): 126.4%
9 | Fc1ccccc1OCCCCCCCCNc1ccnc2ccccc12 [DB, N-[8-(2-Fluorophenoxy)octyl]quinolin-4-amine] | 20.1% | 22.2% | 20.47% |  |  |  |  | 24.7% | 24.7% | 56% | 62.3% | 40.3% | 29.6% | 
10 | CCCCCCOc1ccccc1Nc1ccnc2ccccc12 [DP, N-[2-(Hexyloxy)phenyl]quinolin-4-amine] | 72.5% | 25.4% | 42.36% | 65.3% | 77.4% | 64.6% | 74.1% |  |  |  |  |  |  | viability at 2.5 µM [1, 4]: 37.5%; viability at 2.5 µM [3, 5]: 37.5%
11 | COc1cccc(C(=O)NCCCCCCCCNc2ccnc3ccccc23)c1 [DZ, 3-Methoxy-N-[8-(quinolin-4-ylamino)octyl]benzamide] | 23.7% | 17.4% | 73.5% |  |  |  |  | 84.8% | 84.8% | 85.6% | 86.7% | 71.8% | 89% | 
12 | COc1ccccc1OCCCNc1ccnc2ccccc12 [CT, N-[3-(2-Methoxyphenoxy)propyl]quinolin-4-amine] |  |  | 34.36% | 63.2% | 71.9% | 46.3% | 46.3% |  |  |  |  |  |  | viability at 2.5 µM [1, 4]: 34.5%; viability at 2.5 µM [3, 5]: 34.5%

Source: patent publication US20250034139A1, “AMINE COMPOUNDS HAVING ANTI-INFLAMMATORY, ANTIFUNGAL, ANTIPARASITIC, AND ANTICANCER ACTIVITY” (PHARMA CINQ, LLC, priority 2013, published 2025)
